Tested on: 935938-334-R-J1-PDC complex spheroid viability
Assay: Anticancer human tumor 935938-334-R-J1-PDC patient-derived small intestine adenocarcinoma cell line growth inhibition [POLQ]
Conditions: for IC50: curve of first compound; for viability, T/C: stronger effect = lower value
In short: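 Patient-derived tumour cells were co-cultured with HUVEC and mesenchymal stem cells as multicellular spheroids at 37 °C. They were treated with POLQ inhibitors (novobiocin, ART-558, RP6685) alone or combined with other agents. Top concentrations were at or near clinical Cmax (otherwise 10 microM; SN-38 at 1 microM), decreasing in half-log steps.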

[1] = second compound 0.0316 µM, first compound 0.0316 µM
[2] = second compound 0.0316 µM, first compound 0.1 µM
[3] = second compound 0.0316 µM, first compound 0.316 µM
[4] = second compound 0.0316 µM, first compound 1 µM
[5] = second compound 0.0316 µM, first compound 3.16 µM
[6] = second compound 0.0316 µM, first compound 10 µM
[7] = second compound 0.1 µM, first compound 0.0316 µM
[8] = second compound 0.1 µM, first compound 0.1 µM
[9] = second compound 0.1 µM, first compound 0.316 µM
[10] = second compound 0.1 µM, first compound 1 µM
[11] = second compound 0.1 µM, first compound 3.16 µM
[12] = second compound 0.1 µM, first compound 10 µM
[13] = second compound 0.316 µM, first compound 0.0316 µM
[14] = second compound 0.316 µM, first compound 0.1 µM
[15] = second compound 0.316 µM, first compound 0.316 µM
[16] = second compound 0.316 µM, first compound 1 µM
[17] = second compound 0.316 µM, first compound 3.16 µM
[18] = second compound 0.316 µM, first compound 10 µM
[19] = second compound 1 µM, first compound 0.0316 µM
[20] = second compound 1 µM, first compound 0.1 µM
[21] = second compound 1 µM, first compound 0.316 µM
[22] = second compound 1 µM, first compound 1 µM
[23] = second compound 1 µM, first compound 3.16 µM
[24] = second compound 1 µM, first compound 10 µM
[25] = second compound 3.16 µM, first compound 0.0316 µM
[26] = second compound 3.16 µM, first compound 0.1 µM
[27] = second compound 3.16 µM, first compound 0.316 µM
[28] = second compound 3.16 µM, first compound 1 µM
[29] = second compound 3.16 µM, first compound 3.16 µM
[30] = second compound 3.16 µM, first compound 10 µM
[31] = second compound 10 µM, first compound 0.0316 µM
[32] = second compound 10 µM, first compound 0.1 µM
[33] = second compound 10 µM, first compound 0.316 µM
[34] = second compound 10 µM, first compound 1 µM
[35] = second compound 10 µM, first compound 3.16 µM
[36] = second compound 10 µM, first compound 10 µM
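Further: spheroids exposed to drugs for seven days before viability read.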
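Wherever viability, T/C is given: 100% = DMSO vehicle control wells.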

CC(=O)O[C@H]1C(=O)[C@@]2(C)[C@H]([C@H](OC(=O)c3ccccc3)[C@]3(O)C[C@H](OC(=O)[C@H](O)[C@@H](NC(=O)c4ccccc4)c4ccccc4)C(C)=C1C3(C)C)[C@]1(OC(C)=O)CO[C@@H]1C[C@@H]2O + Cc1cccc(N(C)C(=O)C2C(O)CCN2c2nc(C)cc(C(F)(F)F)c2C#N)c1
IC50 (second compound 0.0316 µM): < 9.49 nM | IC50 (second compound 0.1 µM): < 9.49 nM | IC50 (second compound 0.316 µM): < 9.49 nM | IC50 (second compound 1 µM): < 9.49 nM | IC50 (second compound 3.16 µM): < 9.49 nM | IC50 (second compound 10 µM): < 9.49 nM | viability, T/C (second compound 0.0316 µM, first compound 0.00949 µM): 35.9% | viability, T/C (second compound 0.0316 µM, first compound 0.03 µM): 21.7% | viability, T/C (second compound 0.0316 µM, first compound 0.0949 µM): 16.1% | viability, T/C (second compound 0.0316 µM, first compound 0.3 µM): 15.5% | viability, T/C (second compound 0.0316 µM, first compound 0.949 µM): 19.6% | viability, T/C (second compound 0.0316 µM, first compound 3 µM): 18.6% | viability, T/C (second compound 0.1 µM, first compound 0.00949 µM): 38.3% | viability, T/C (second compound 0.1 µM, first compound 0.03 µM): 20.5% | viability, T/C (second compound 0.1 µM, first compound 0.0949 µM): 13.9% | viability, T/C (second compound 0.1 µM, first compound 0.3 µM): 13.2% | viability, T/C (second compound 0.1 µM, first compound 0.949 µM): 19.7% | viability, T/C (second compound 0.1 µM, first compound 3 µM): 15.4% | viability, T/C (second compound 0.316 µM, first compound 0.00949 µM): 35.3% | viability, T/C (second compound 0.316 µM, first compound 0.03 µM): 21.7% | viability, T/C (second compound 0.316 µM, first compound 0.0949 µM): 16.7% | viability, T/C (second compound 0.316 µM, first compound 0.3 µM): 19% | viability, T/C (second compound 0.316 µM, first compound 0.949 µM): 21.5% | viability, T/C (second compound 0.316 µM, first compound 3 µM): 16% | viability, T/C (second compound 1 µM, first compound 0.00949 µM): 34.2% | viability, T/C (second compound 1 µM, first compound 0.03 µM): 19.4% | viability, T/C (second compound 1 µM, first compound 0.0949 µM): 15.6% | viability, T/C (second compound 1 µM, first compound 0.3 µM): 16.9% | viability, T/C (second compound 1 µM, first compound 0.949 µM): 18.6% | viability, T/C (second compound 1 µM, first compound 3 µM): 16% | viability, T/C (second compound 3.16 µM, first compound 0.00949 µM): 38.3% | viability, T/C (second compound 3.16 µM, first compound 0.03 µM): 17.8% | viability, T/C (second compound 3.16 µM, first compound 0.0949 µM): 15.4% | viability, T/C (second compound 3.16 µM, first compound 0.3 µM): 16% | viability, T/C (second compound 3.16 µM, first compound 0.949 µM): 19.2% | viability, T/C (second compound 3.16 µM, first compound 3 µM): 15.8% | viability, T/C (second compound 10 µM, first compound 0.00949 µM): 31.6% | viability, T/C (second compound 10 µM, first compound 0.03 µM): 17.8% | viability, T/C (second compound 10 µM, first compound 0.0949 µM): 12.4% | viability, T/C (second compound 10 µM, first compound 0.3 µM): 14.9% | viability, T/C (second compound 10 µM, first compound 0.949 µM): 18.1% | viability, T/C (second compound 10 µM, first compound 3 µM): 14.4%

CCc1cc2c(N3CCc4c(cc(Cn5ccnc5)cc4-c4cn(C)nc4C(F)(F)F)C3=O)cc(C)nc2c(OC)n1 + Nc1ccc(C#CCN(C(=O)Cc2ncc(C(F)(F)F)cc2C(F)(F)F)c2ccc(F)cc2)nn1
IC50 (second compound 0.0316 µM): > 10000 nM | IC50 (second compound 0.1 µM): > 10000 nM | IC50 (second compound 0.316 µM): > 10000 nM | IC50 (second compound 1 µM): > 10000 nM | IC50 (second compound 3.16 µM): > 10000 nM | IC50 (second compound 10 µM): > 10000 nM | viability, T/C [1]: 93.5% | viability, T/C [2]: 62% | viability, T/C [3]: 63.9% | viability, T/C [4]: 73.7% | viability, T/C [5]: 74.5% | viability, T/C [6]: 66.7% | viability, T/C [7]: 67.9% | viability, T/C [8]: 66.2% | viability, T/C [9]: 57.1% | viability, T/C [10]: 52.9% | viability, T/C [11]: 70.6% | viability, T/C [12]: 57.8% | viability, T/C [13]: 74.1% | viability, T/C [14]: 65% | viability, T/C [15]: 77.6% | viability, T/C [16]: 60.9% | viability, T/C [17]: 62.3% | viability, T/C [18]: 63.5% | viability, T/C [19]: 89.8% | viability, T/C [20]: 60.6% | viability, T/C [21]: 65% | viability, T/C [22]: 65.5% | viability, T/C [23]: 56.5% | viability, T/C [24]: 49.1% | viability, T/C [25]: 85.2% | viability, T/C [26]: 63.3% | viability, T/C [27]: 62% | viability, T/C [28]: 58.1% | viability, T/C [29]: 72.2% | viability, T/C [30]: 56.6% | viability, T/C [31]: 70.5% | viability, T/C [32]: 75.1% | viability, T/C [33]: 82.3% | viability, T/C [34]: 72.8% | viability, T/C [35]: 66.4% | viability, T/C [36]: 61.1%

CC1COCCN1c1cc(-c2ccnn2C)c2ccnc(-c3ccn[nH]3)c2n1 (stereo unspecified) + Nc1ccc(C#CCN(C(=O)Cc2ncc(C(F)(F)F)cc2C(F)(F)F)c2ccc(F)cc2)nn1
IC50 (second compound 0.0316 µM): 71.5 nM | IC50 (second compound 0.1 µM): 85.6 nM | IC50 (second compound 0.316 µM): 86.2 nM | IC50 (second compound 1 µM): 83.8 nM | IC50 (second compound 3.16 µM): 86.6 nM | IC50 (second compound 10 µM): 91.5 nM | viability, T/C [1]: 92.4% | viability, T/C [2]: 32.2% | viability, T/C [3]: 19.1% | viability, T/C [4]: 15.3% | viability, T/C [5]: 14.8% | viability, T/C [6]: 17.6% | viability, T/C [7]: 89.4% | viability, T/C [8]: 43.9% | viability, T/C [9]: 18.5% | viability, T/C [10]: 13.6% | viability, T/C [11]: 21.2% | viability, T/C [12]: 19.4% | viability, T/C [13]: 117% | viability, T/C [14]: 40% | viability, T/C [15]: 17.4% | viability, T/C [16]: 13.3% | viability, T/C [17]: 18.7% | viability, T/C [18]: 22% | viability, T/C [19]: 103% | viability, T/C [20]: 40.2% | viability, T/C [21]: 20.2% | viability, T/C [22]: 16.3% | viability, T/C [23]: 16.8% | viability, T/C [24]: 21.2% | viability, T/C [25]: 91.7% | viability, T/C [26]: 44% | viability, T/C [27]: 15.5% | viability, T/C [28]: 16.1% | viability, T/C [29]: 19.2% | viability, T/C [30]: 27.6% | viability, T/C [31]: 93.4% | viability, T/C [32]: 46.3% | viability, T/C [33]: 19.4% | viability, T/C [34]: 18.4% | viability, T/C [35]: 19.3% | viability, T/C [36]: 21.1%
